Key:
[1] = Comparative maximum aqueous solubility study (ICP-OES); type: physicochemical; conditions: doubly deionized water, 24 h shaking, ambient 18–20°C, mean ± SD of N = 3
Method: One to five milligrams of FY26⋅PF6 or FY26⋅I, and 180 mg of FY26⋅Cl were dispensed into Falcon tubes in triplicates, then 1 ml of doubly deionized water (DDIW) was added. The Falcon tubes were placed on a Vibrax VXB basic shaker (Sigma-Aldrich, Dorset, UK) for 24 h at a speed of […] (ambient temperature 18–20°C), and were checked at intervals (further solids were added if total saturation appeared to occur). The samples were filtered through syringe filters (PTFE, 0.45 µm, 4 mm) to remove any undissolved solids. The concentrations of Os in the solutions were measured using inductively coupled plasma-optical emission spectroscopy (ICP-OES) (Agilent, Stockport, UK).
Analyses of FY26 solutions were carried out on a Perkin-Elmer (optical emission spectrometer) Optima 5300 DV instrument. All samples and standards were prepared fresh on the day in DDIW with distilled HNO3 (3.2%), thiourea (5 mM), and ascorbic acid (0.1 g/l). The osmium standard was diluted to the following concentrations for the calibration curve: 0, 25, 50, 100, 200, 400, 600, 800, and 1000 ppb. The samples were diluted by serial dilutions of typically 1 in 10 until their concentrations fitted within the calibration range and % total dissolved solids were below 0.2%. Samples were prepared in triplicates and the Os optical emissions at 228.226 and 225.585 nm were detected and integrated.

[2] = Tumour and liver osmium uptake after a single ip dose (Experiment 5, ICP-MS); type: in vivo, C57Bl/6 mice
Method: Experiment 5 determined FY26⋅Cl uptake in mouse tumour and liver. Hepa1–6-bearing mice were randomly assigned to either treatment or control groups. They received a single ip injection of 5, 10, or 20 mg/kg of FY26⋅Cl or 0.1 M PBS (vehicle) at ZT6 (Table 1). The mice from pre-set subgroups were culled at 6, 24, or 48 h after injection. The subcutaneous tumours in both flanks, as well as liver, spleen, one kidney, an ileum, and a colon segment and brain were sampled and stored at −80°C.
For Experiments 1 and 2, FY26⋅PF6 was diluted in the vehicle, composed of 1% Tween 80 (Sigma-Aldrich, Gillingham, UK), 5% DMSO (Corning, New York, USA) and 94% of 0.9% saline (Prep room, Life Sciences, University of Warwick) under laminar flow. FY26⋅PF6 concentration was confirmed with ICP-MS. For Experiments 3–5, using FY26⋅Cl, a stock solution of 50 mg/ml FY26⋅Cl was prepared in 0.9% saline on the day of injection and diluted as required; the vehicle consisted of 0.9% saline.
Liver tissue was homogenized by manual mechanical grinding (pestle and mortar) while frozen under liquid N2. Once thawed, ∼90–110 mg of homogenized tissue was pipetted into microwave reaction vessels (10 ml), and tetramethylammonium hydroxide (TMAH, 25% m/v, 2 ml) was added. Tumour tissue was not homogenized and instead digested as whole tissue. It was weighed directly into microwave vials and TMAH was added (100 µl per 5 mg tissue, minimum of 500 µl added). The samples were digested via microwave irradiation (CEM SP-D Discover® microwave reactor, ≥300 W, ≥450 psi) at 200°C for 10 min. Digested samples were diluted in one part DDIW, and then centrifuged at 9000 rpm for 10 min at 20°C. The final analytical samples were prepared by a further 1 in 12.5 dilution in DDIW (total dilution of 1 in 25), ensuring a final TMAH concentration of 1% and total dissolved solids <0.1% […]. TMAH digestion was selected to circumvent the formation of volatile Os species with nitric acid.
Analyses of digested tissue samples were carried out on an Agilent Technologies ICP-MS 7900 spectrometer in a basic aqueous matrix of TMAH (1%, m/v). The osmium concentrations were determined via isotopic detection of ^189Os in gas (He) and no-gas modes, and samples were referenced internally to ^100Ru (10 ppb). A concentration calibration curve was produced by serial dilutions of an osmium standard (1000 ppm) in 1% TMAH: 0, 0.1, 0.25, 0.5, 1, 2.5, 5, 10, 25, 50, 100, 250, 500, and 1000 ppb.

CN(C)c1ccc(N=Nc2ccccn2)cc1.Cc1ccc(C(C)C)cc1.[Cl-].[I-].[Os+2] [FY26⋅Cl]
maximum aqueous solubility [1]: 215 (±10) mM | liver [Os] levels at 6 h relative to 20 or 10 mg/kg ([2]; 5 mg/kg single ip, 6 h): nearly halved | liver [Os] levels over time ([2]; 20 mg/kg single ip): remained almost constant until 48 h | tumour [Os] levels over time ([2]; 20 mg/kg single ip, 6, 24 and 48 h): remained almost constant over time | liver [Os] concentrations over time ([2]; 10 and 5 mg/kg single ip): decreased sharply at 24 h and remained stable until 48 h | tumour [Os] levels over time ([2]; 10 and 5 mg/kg single ip, tumours of both flanks): decreased at 24 h and slightly increased at 48 h | tumour uptake as compared to liver (less) ([2]; 6 h post-treatment, single ip dose at ZT6, both tumours): ~10 fold

Source: PMC7853623, “Dose- and time-dependent tolerability and efficacy of organo-osmium complex FY26 and its tissue pharmacokinetics in hepatocarcinoma-bearing mice” (Metallomics: Integrated Biometal Science, 2020)
